Columns and labels:
Type in all cases: biochemical
HDAC8 = biological target: T1, HDAC8 (Homo sapiens, UniProt Q9BY41); assay: HDAC-Glo I/II enzymatic assay, HDAC8; settings: read-out: HDAC8 pIC50 (converted)
T1 construct: purchased BPS Bioscience 50008
T1 sequence (Q9BY41 1-377): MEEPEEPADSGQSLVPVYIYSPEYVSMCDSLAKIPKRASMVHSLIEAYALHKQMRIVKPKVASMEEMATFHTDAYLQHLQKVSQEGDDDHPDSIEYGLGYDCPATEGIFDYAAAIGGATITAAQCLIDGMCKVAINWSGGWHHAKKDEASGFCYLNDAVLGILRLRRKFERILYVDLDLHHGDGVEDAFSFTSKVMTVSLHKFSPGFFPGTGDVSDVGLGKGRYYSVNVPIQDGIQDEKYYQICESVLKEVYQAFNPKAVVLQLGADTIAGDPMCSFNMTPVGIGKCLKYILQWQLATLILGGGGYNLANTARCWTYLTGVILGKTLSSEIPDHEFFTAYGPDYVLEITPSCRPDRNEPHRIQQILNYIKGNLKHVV
Procedure: (§1) Inhibitors were tested at eight serial dilutions in triplicate ranging from 50 μM–86,7 pM (HDAC6) or 100 μM–8,67 nM (HDAC1,2,3,8). Drug dosing was performed from 10 mM and 0.1 mM DMSO stock solutions with a D300e Digital Dispenser (Tecan). HDACs (7 ng/mL for HDAC1, 10 ng/mL for HDAC2, 200 ng/mL for HDAC3/Ncor2 complex, 100 ng/mL for HDAC6, 200 ng/mL for HDAC8) and inhibitors were incubated together for 30 min at room temperature. After addition of the HDAC‐Glo™ I/II reagent, plates were shaken (800 rpm orbital shaker, 30 s), centrifuged (300 g, 1 min) and incubated at room temperature for 30 min. Luminescence was detected with a CLARIOstar (BMG Labtech) plate reader.

HDAC1 = biological target: T2, HDAC1 (Homo sapiens, UniProt Q13547); assay: HDAC-Glo I/II enzymatic assay, HDAC1; settings: read-out: HDAC1 pIC50 (converted)
T2 construct: purchased BPS Bioscience 50051
T2 sequence (Q13547 whole entry): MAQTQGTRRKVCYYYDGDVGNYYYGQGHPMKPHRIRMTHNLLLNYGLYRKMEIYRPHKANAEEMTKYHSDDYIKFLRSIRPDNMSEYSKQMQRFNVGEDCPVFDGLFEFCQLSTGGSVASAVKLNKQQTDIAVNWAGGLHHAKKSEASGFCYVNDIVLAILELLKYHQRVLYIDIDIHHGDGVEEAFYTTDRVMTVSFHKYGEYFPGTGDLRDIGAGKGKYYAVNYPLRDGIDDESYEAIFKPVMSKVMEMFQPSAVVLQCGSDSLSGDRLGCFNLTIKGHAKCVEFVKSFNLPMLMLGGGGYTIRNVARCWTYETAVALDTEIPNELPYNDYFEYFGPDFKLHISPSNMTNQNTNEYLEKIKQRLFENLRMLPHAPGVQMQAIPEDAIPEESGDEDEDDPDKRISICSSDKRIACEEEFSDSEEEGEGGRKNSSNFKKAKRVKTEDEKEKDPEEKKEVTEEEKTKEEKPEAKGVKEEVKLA
Procedure: as §1

HDAC2 = biological target: T3, HDAC2 (Homo sapiens, UniProt Q92769); assay: HDAC-Glo I/II enzymatic assay, HDAC2; settings: read-out: HDAC2 pIC50 (converted)
T3 construct: purchased BPS Bioscience 50002
T3 sequence (Q92769 whole entry): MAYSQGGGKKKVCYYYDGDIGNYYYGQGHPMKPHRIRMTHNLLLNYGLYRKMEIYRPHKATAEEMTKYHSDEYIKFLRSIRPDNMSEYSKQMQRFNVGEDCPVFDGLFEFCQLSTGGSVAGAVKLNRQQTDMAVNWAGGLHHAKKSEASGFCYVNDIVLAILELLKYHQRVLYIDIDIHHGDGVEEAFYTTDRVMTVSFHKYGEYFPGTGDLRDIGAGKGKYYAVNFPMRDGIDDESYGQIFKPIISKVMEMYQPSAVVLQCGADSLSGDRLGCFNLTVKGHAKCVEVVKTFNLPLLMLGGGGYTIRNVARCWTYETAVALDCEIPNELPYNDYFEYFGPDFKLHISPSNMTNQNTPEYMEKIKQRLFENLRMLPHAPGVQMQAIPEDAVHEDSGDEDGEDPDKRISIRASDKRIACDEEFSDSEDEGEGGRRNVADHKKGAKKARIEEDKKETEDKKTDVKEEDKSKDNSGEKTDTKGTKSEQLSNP
Procedure: as §1

HDAC3/NcoR2 complex = biological target: T4, HDAC3/NcoR2 complex (Homo sapiens, UniProt O15379); assay: HDAC-Glo I/II enzymatic assay, HDAC3; settings: read-out: HDAC3 pIC50 (converted)
T4 construct: purchased BPS Bioscience 50003
T4 sequence (O15379 whole entry): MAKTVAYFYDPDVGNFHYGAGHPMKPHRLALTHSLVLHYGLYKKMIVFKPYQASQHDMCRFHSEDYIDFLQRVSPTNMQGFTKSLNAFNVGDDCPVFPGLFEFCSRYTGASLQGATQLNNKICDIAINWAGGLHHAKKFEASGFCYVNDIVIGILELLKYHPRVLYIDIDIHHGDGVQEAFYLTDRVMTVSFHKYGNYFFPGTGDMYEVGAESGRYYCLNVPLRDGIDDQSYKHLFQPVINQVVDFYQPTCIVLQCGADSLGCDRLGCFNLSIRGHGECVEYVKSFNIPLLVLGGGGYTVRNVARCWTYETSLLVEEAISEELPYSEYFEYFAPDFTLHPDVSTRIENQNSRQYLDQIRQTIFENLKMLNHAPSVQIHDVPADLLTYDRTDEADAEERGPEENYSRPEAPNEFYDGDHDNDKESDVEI
T4 sequence (Q9Y618 395-489 partner limits assumed): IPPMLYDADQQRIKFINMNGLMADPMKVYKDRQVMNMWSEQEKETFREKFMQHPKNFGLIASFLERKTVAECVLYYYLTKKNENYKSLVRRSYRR
Procedure: as §1

HDAC6 = biological target: T5, HDAC6 (Homo sapiens, UniProt Q9UBN7); assay: HDAC-Glo I/II enzymatic assay, HDAC6; settings: read-out: HDAC6 pIC50 (converted)
T5 construct: purchased BPS Bioscience 50006
T5 sequence (Q9UBN7 1-1215): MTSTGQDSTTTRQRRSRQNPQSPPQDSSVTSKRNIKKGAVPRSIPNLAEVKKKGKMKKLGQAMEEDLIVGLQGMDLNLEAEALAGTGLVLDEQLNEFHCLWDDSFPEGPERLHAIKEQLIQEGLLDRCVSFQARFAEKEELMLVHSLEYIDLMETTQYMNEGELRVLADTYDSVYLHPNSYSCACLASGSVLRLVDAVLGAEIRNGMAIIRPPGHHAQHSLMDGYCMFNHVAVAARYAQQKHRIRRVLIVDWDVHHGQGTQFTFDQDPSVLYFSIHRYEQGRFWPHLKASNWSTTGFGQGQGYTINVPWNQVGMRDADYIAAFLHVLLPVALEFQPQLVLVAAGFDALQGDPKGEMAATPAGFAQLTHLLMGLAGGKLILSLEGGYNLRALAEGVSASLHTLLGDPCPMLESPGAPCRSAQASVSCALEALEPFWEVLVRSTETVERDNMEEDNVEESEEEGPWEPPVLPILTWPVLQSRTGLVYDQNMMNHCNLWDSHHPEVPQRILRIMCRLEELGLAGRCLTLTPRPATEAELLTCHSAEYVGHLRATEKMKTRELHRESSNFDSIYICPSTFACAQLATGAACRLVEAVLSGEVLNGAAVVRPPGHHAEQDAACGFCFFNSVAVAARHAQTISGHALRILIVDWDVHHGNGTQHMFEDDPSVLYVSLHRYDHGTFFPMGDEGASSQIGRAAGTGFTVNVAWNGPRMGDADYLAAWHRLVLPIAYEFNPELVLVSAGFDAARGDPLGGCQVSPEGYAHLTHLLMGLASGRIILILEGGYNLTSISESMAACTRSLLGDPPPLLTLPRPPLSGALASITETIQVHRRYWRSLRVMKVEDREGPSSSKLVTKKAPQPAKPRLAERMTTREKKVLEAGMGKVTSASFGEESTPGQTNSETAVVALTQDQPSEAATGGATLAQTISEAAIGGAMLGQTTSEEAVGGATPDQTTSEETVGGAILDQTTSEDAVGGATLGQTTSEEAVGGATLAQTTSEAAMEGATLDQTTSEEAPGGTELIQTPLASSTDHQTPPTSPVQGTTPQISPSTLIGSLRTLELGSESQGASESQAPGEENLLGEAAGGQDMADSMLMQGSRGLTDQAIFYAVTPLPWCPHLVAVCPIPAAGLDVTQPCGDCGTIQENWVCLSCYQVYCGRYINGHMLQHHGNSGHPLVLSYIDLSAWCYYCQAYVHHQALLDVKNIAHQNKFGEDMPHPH
Procedure: as §1

SMILES | IC50 (HDAC8) [nM] | IC50 (HDAC1) [nM] | IC50 (HDAC2) [nM] | IC50 (HDAC3/NcoR2 complex) [nM] | IC50 (HDAC6) [nM]
CN(C)Cc1nn(Cc2ccc(C(=O)NO)cc2)c2ccccc12 [Compound 1g] | 851 |  |  |  | 
O=C(NO)c1ccc(Cn2ccc3ccc(C(=O)NO)cc32)cc1 [Compound 3a] | 67.6 | 263 | 2240 | 5500 | 18.2
CN(C)Cc1cn(Cc2ccc(C(=O)NO)cc2)c2cc(C(=O)NO)ccc12 [Compound 3b] | 166 | 617 | 5370 | 6920 | 75.9
CN1CCc2c(c3ccc(C(=O)NO)cc3n2Cc2ccc(C(=O)NO)cc2)C1 [Compound 3c] | 513 | 501 | 4170 | 13500 | 47.9
O=C(NO)c1ccc(Cc2c[nH]c3ccc(C(=O)NO)cc23)cc1 [Compound 3d] | 97.7 | 525 | 4680 | 6460 | 22.4
CN(C)CCn1cc(Cc2ccc(C(=O)NO)cc2)c2cc(C(=O)NO)ccc21 [Compound 3e] | 66.1 | 813 | 7080 | 6610 | 44.7
O=C(NO)c1ccc(Cn2ncc3ccc(C(=O)NO)cc32)cc1 [Compound 3f] | 42.7 | 87.1 | 724 | 1320 | 15.1
CN(C)Cc1nn(Cc2ccc(C(=O)NO)cc2)c2cc(C(=O)NO)ccc12 [Compound 3g] | 89.1 | 661 | 9550 | 6610 | 30.2
